Results from PubChem BioAssay (NCI).
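Test compounds were applied to cells in 96-well plates for 48 hours at 5 doses. GI50 marks 50% less growth. TGI: concentration producing complete growth inhibition.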

Tests used:
Assay in all cases: NCI-60 cell line screen, 48 h
LOX IMVI melanoma = system: LOX IMVI melanoma
HOP-62 NSCLC = system: HOP-62 NSCLC
RXF 393 renal = system: RXF 393 renal
HCT-116 colon = system: HCT-116 colon
TK-10 renal = system: TK-10 renal
HCC-2998 colon = system: HCC-2998 colon
OVCAR-3 ovarian = system: OVCAR-3 ovarian
MDA-MB-231 breast = system: MDA-MB-231 breast
NCI-H23 lung = system: NCI-H23 lung
UACC-62 melanoma = system: UACC-62 melanoma

COC(=O)c1c2c(c(C)[n+]([O-])c1C)C(=O)C=C(NCc1ccc(F)c(F)c1)C2=O
GI50 (LOX IMVI melanoma): 0.0825 µM
TGI (LOX IMVI melanoma): 1.39 µM
GI50 (HOP-62 NSCLC): 0.86 µM
TGI (HOP-62 NSCLC): 2.5 µM
GI50 (RXF 393 renal): 1.05 µM
TGI (RXF 393 renal): 2.39 µM
GI50 (HCT-116 colon): 0.256 µM
TGI (HCT-116 colon): 0.902 µM
GI50 (TK-10 renal): 2.06 µM
TGI (TK-10 renal): 4.82 µM
GI50 (HCC-2998 colon): 0.359 µM
TGI (HCC-2998 colon): 1.43 µM
GI50 (OVCAR-3 ovarian): 0.256 µM
TGI (OVCAR-3 ovarian): 0.766 µM
GI50 (MDA-MB-231 breast): 0.251 µM
TGI (MDA-MB-231 breast): 1.83 µM
GI50 (NCI-H23 lung): 0.498 µM
TGI (NCI-H23 lung): 2.59 µM
GI50 (UACC-62 melanoma): 0.0618 µM
TGI (UACC-62 melanoma): 0.612 µM

O=C(NCCCNc1cc(-c2cn(-c3ccccc3)nc2-c2cccc(O)c2)ccn1)c1ccccc1
GI50 (LOX IMVI melanoma): 2.25 µM
TGI (LOX IMVI melanoma): 6.36 µM
GI50 (HOP-62 NSCLC): 3.79 µM
TGI (HOP-62 NSCLC): 14.1 µM
GI50 (RXF 393 renal): 1.97 µM
TGI (RXF 393 renal): 6.2 µM
GI50 (HCT-116 colon): 3.58 µM
TGI (HCT-116 colon): 17 µM
GI50 (TK-10 renal): 8.39 µM
TGI (TK-10 renal): 52.6 µM
GI50 (HCC-2998 colon): 1.92 µM
TGI (HCC-2998 colon): 3.69 µM
GI50 (OVCAR-3 ovarian): 3.73 µM
TGI (OVCAR-3 ovarian): 21 µM
GI50 (MDA-MB-231 breast): 2.34 µM
TGI (MDA-MB-231 breast): 5.4 µM
GI50 (NCI-H23 lung): 3.04 µM
TGI (NCI-H23 lung): 26.6 µM
GI50 (UACC-62 melanoma): 3.15 µM
TGI (UACC-62 melanoma): 12.2 µM

O=C1C=C(Br)C(=O)C12CCc1ccccc12 (stereo unspecified)
TGI (LOX IMVI melanoma): 31.7 µM
TGI (HOP-62 NSCLC): 69 µM
TGI (RXF 393 renal): 19.1 µM
TGI (HCT-116 colon): 28.7 µM
TGI (TK-10 renal): 32.3 µM
TGI (HCC-2998 colon): 40.2 µM
TGI (OVCAR-3 ovarian): 41.8 µM
TGI (MDA-MB-231 breast): 70.2 µM
TGI (NCI-H23 lung): 44.6 µM
TGI (UACC-62 melanoma): 32 µM

COC1CC2C=C(C)/C=C/C=C/C(=O)NC(c3ccccc3)C/C=C/CCC(O)CC(=O)C2=C1O (stereo unspecified)
GI50 (LOX IMVI melanoma): 0.297 µM
TGI (LOX IMVI melanoma): 1.22 µM
GI50 (HOP-62 NSCLC): 0.275 µM
TGI (HOP-62 NSCLC): 1.53 µM
GI50 (RXF 393 renal): 0.314 µM
TGI (RXF 393 renal): 1.09 µM
GI50 (HCT-116 colon): 0.272 µM
TGI (HCT-116 colon): 1.22 µM
GI50 (TK-10 renal): 0.298 µM
TGI (TK-10 renal): 1.31 µM
GI50 (HCC-2998 colon): 0.558 µM
TGI (HCC-2998 colon): 1.94 µM
GI50 (OVCAR-3 ovarian): 0.271 µM
TGI (OVCAR-3 ovarian): 0.894 µM
GI50 (MDA-MB-231 breast): 0.27 µM
TGI (MDA-MB-231 breast): 0.961 µM
GI50 (NCI-H23 lung): 0.24 µM
TGI (NCI-H23 lung): 1.11 µM
GI50 (UACC-62 melanoma): 0.318 µM
TGI (UACC-62 melanoma): 1.54 µM

NNc1cccc(/C=C/c2ccccc2)cc1=O
GI50 (LOX IMVI melanoma): 5.07 µM
TGI (LOX IMVI melanoma): > 100 µM
GI50 (HOP-62 NSCLC): 9.3 µM
TGI (HOP-62 NSCLC): > 100 µM
GI50 (RXF 393 renal): 46.5 µM
TGI (RXF 393 renal): > 100 µM
GI50 (HCT-116 colon): 7.3 µM
TGI (HCT-116 colon): > 100 µM
GI50 (TK-10 renal): 50.6 µM
TGI (TK-10 renal): > 100 µM
GI50 (HCC-2998 colon): 16.8 µM
TGI (HCC-2998 colon): > 100 µM
GI50 (OVCAR-3 ovarian): 7.35 µM
TGI (OVCAR-3 ovarian): 62.6 µM
GI50 (MDA-MB-231 breast): 4.73 µM
TGI (MDA-MB-231 breast): > 100 µM
GI50 (UACC-62 melanoma): 5.33 µM
TGI (UACC-62 melanoma): 93.1 µM

O=c1nc(Nc2cccc(Cl)c2)oc2cc(Cl)oc(=O)c12
GI50 (LOX IMVI melanoma): 11.9 µM
TGI (LOX IMVI melanoma): > 100 µM
GI50 (HOP-62 NSCLC): 11 µM
TGI (HOP-62 NSCLC): 31.4 µM
GI50 (RXF 393 renal): 3.22 µM
TGI (RXF 393 renal): 8.52 µM
GI50 (HCT-116 colon): 10.7 µM
TGI (HCT-116 colon): 41.3 µM
GI50 (TK-10 renal): 5.11 µM
TGI (TK-10 renal): 24 µM
GI50 (HCC-2998 colon): 13.4 µM
TGI (HCC-2998 colon): 27.5 µM
GI50 (OVCAR-3 ovarian): 3.48 µM
TGI (OVCAR-3 ovarian): 13.3 µM
GI50 (MDA-MB-231 breast): 5.78 µM
TGI (MDA-MB-231 breast): 30.9 µM
GI50 (NCI-H23 lung): 7.15 µM
TGI (NCI-H23 lung): 23.7 µM
GI50 (UACC-62 melanoma): 5.79 µM
TGI (UACC-62 melanoma): 21.3 µM

COc1ccc(-c2cc(/C=C3\C(=O)Nc4ccc(Cl)cc43)[nH]n2)cc1
GI50 (HOP-62 NSCLC): 4.39 µM
TGI (HOP-62 NSCLC): 15.8 µM
GI50 (RXF 393 renal): 5.61 µM
TGI (RXF 393 renal): 19.1 µM
GI50 (HCT-116 colon): 4.13 µM
TGI (HCT-116 colon): 14.1 µM
GI50 (TK-10 renal): 8.8 µM
TGI (TK-10 renal): 20.7 µM
GI50 (HCC-2998 colon): 9.4 µM
TGI (HCC-2998 colon): 24.2 µM
GI50 (OVCAR-3 ovarian): 3.05 µM
TGI (OVCAR-3 ovarian): 8.42 µM
GI50 (MDA-MB-231 breast): 3.58 µM
TGI (MDA-MB-231 breast): 15.5 µM
GI50 (NCI-H23 lung): 3.73 µM
TGI (NCI-H23 lung): 16.3 µM
GI50 (UACC-62 melanoma): 5.56 µM
TGI (UACC-62 melanoma): 18.5 µM
